Results on one compound are retold here after US20140257169A1, “USE OF PHOTO[…] PREPARATION OF VIRUS-INACTIVATING MEDICAMENTS FOR TREATING DISEASES” (Beijing Ecyber Medical Technology R & D Center Co. , Ltd., priority 2013, published 2014).

The assay relates to thoracic aorta blood vessel plaque. As to conditions: high fat/high cholesterol fed rabbit; 5-ALA 80 mg/kg intraperitoneal 1.5 h before; substrate (carbamide peroxide) intravenously infused; irradiation once with 5 Gy; examined on the seventh day. The source says:
The New-Zealand rabbit model of blood vessel plaque is a common animal experimental model. […] The blood vessel plaque was taken as the target region and positioned, and a radiotherapy plan was made.

With `NCC(=O)CCC(=O)O` [5-ALA], the “regression of thoracic aorta blood vessel plaque (CTA angiography and MR)” value was “completely disappeared”.
